From patent US20260083864A1, “CONTRAST AGENTS FOR USE IN DIAGNOSTIC COMPUTED TOMOGRAPHY IMAGING” (Bayer Aktiengesellschaft, priority 2022, published 2026)

What was measured:
[1] = system: freshly isolated rat hepatocytes; test: Uptake into freshly isolated rat hepatocytes; details: for Uptake rat hepatocytes: 100 μmol Gd/L, 10 min, 37° C., relative to RC1 (Gd-EOB-DTPA); for Inhibition Rifampicine: rat hepatocyte uptake, test item and Rifampicine 1:1, each 100 μM
Procedure: After incubation the adherent hepatocytes were washed once with 37° C. Hepes carbonate transport buffer (500 μL/well). The test items and RC1 were prepared from stock solutions (180 to 500 mM concentration) in Hepes carbonate transport buffer at pH 7.4 to reach a final concentration of 100 μmol Gd/L. The specific uptake of the test item or RC1 into rat hepatocytes via OATP1B1 and OATP1B3 was challenged using a known OATP1B1/1B3 inhibitor (Rifampicine, Fa. Sigma R3501, test item and inhibitor 1:1 each 100 μM final concentration). The prepared rat hepatocyte plates were incubated with test solutions (500 μL/well) at 37° C. for 10 min using a thermoshaker (Fa. Grant Bio, PHMP). Triplicates were performed for each test item. After incubating the cells were washed once with cold PBS buffer (Fa. Gibco, Dulbeccos PBS (+)). After washing the intact hepatocytes were lysed by addition of 500 μL cold 0.01% Triton-X 100 in Millipore water for 1 h. […] As a reference standard RC1 is used in the same well plate. The hepatocyte uptake of the test compound is calculated relative to RC1 (resulting in the unit % of RC1).

OATP1B3 = target: T1, OATP1B3 (Homo sapiens, UniProt Q9NPD5); test: Uptake into stable transfected OATP1B3 HEK 293 cells; type: cell-based; details: for Uptake into OATP1B3-HEK 293 cells: 40 min incubation, relative to RC1 (Gd-EOB-DTPA); for Inhibition Rifampicine: uptake into OATP1B3-HEK 293 cells
T1 sequence (Q9NPD5 1-702): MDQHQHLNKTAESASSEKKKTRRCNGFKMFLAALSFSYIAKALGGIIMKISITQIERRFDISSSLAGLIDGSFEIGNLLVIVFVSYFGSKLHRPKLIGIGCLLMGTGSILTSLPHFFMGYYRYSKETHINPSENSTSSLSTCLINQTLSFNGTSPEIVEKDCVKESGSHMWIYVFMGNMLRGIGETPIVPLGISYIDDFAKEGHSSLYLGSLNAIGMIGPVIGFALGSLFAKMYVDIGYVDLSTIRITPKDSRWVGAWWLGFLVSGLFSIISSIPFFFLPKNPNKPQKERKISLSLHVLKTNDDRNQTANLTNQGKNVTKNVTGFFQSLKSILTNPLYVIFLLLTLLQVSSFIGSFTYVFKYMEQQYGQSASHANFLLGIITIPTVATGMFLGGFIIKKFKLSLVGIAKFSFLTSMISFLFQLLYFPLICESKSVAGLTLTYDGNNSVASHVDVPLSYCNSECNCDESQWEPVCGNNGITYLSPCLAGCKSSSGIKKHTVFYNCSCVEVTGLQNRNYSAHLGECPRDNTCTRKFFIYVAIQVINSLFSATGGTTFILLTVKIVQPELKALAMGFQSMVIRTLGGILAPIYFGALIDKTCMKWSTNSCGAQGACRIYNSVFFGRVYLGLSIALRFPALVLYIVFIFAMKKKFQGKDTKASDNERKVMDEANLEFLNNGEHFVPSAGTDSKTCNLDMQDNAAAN
Outline: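 HEK 293 cells stably transfected with human OATP1B3 were incubated for 40 min with test items at 100 μM final in transport buffer, in triplicate, then washed with cold PBS. Gadoxetate (Gd-EOB-DTPA) served as the reference standard on the same plate.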

[2] = Relaxivity measurements at 1.41 T in human plasma; type: physicochemical; details: 37° C., normalized to Gd
Outline: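 T1 determined by inversion recovery (8 inversion-time steps) and T2 by CPMG sequence, both with relaxation delay ≥5×T1. Each relaxivity used three Gd concentrations between 0.05 and 2 mM. Relaxivities were derived from relaxation rates measured in water and plasma.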

[3] = Complex stability (transmetallation) against Zn2+ in phosphate buffer; details: 72 hours, 2.5 mM Zn^2+, 26 mM phosphate buffer, 37° C., pH 7.4
Excerpt: If test compounds are instable under these conditions, transmetallation during this test would lead to the formation of the Zn^2+ complex of the test item, while Gd^3+ is released and precipitated as highly insoluble GdPO4.

OATP1B1 = target: T2, OATP1B1 (Homo sapiens, UniProt Q9Y6L6); test: Uptake into stable transfected OATP1B1 HEK 293 cells; type: cell-based; details: for Uptake into OATP1B1-HEK 293 cells: 40 min incubation, relative to RC1 (Gd-EOB-DTPA); for Inhibition Rifampicine: uptake into OATP1B1-HEK 293 cells
T2 sequence (Q9Y6L6 1-691): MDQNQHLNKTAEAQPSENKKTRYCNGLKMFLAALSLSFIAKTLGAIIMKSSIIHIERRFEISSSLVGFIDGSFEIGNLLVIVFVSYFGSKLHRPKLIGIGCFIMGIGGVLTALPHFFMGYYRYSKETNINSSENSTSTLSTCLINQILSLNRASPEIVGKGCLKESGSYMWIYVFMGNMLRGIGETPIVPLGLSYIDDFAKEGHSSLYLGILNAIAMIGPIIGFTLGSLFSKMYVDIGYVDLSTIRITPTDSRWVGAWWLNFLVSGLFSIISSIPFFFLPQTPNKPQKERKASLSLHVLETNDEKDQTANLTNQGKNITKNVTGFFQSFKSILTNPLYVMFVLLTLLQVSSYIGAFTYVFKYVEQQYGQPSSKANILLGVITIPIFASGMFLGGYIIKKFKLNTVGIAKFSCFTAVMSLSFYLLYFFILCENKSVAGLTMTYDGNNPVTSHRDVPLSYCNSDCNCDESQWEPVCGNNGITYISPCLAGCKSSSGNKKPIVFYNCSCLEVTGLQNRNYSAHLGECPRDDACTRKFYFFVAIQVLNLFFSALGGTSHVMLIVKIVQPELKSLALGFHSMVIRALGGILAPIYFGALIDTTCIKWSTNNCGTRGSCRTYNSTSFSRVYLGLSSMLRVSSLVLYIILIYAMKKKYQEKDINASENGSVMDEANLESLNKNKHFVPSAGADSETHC
Outline: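 Stably transfected OATP1B1 HEK293 cells incubated 40 min without shaking with test item at 100 µM final in transport buffer, in triplicate. Cells then washed with cold PBS; gadoxetate run on the same plate as reference.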

[4] = Partition coefficient (log P butanol/buffer); type: physicochemical; details: 1-butanol / 50 mM Tris-HCl, pH 7.4, room temperature
[5] = Water solubility in aqueous buffer; details: aqueous buffer 10 mM Tris-HCl, pH 7.4, 20° C.
Procedure: The solid compounds were added stepwise to the buffer solution. More substance is added once all the suspended material is dissolved until an equilibrium between undissolved and dissolved substance is reached. The suspension was mixed using a shaker (Heidolph Reax 2000) and treated 5 min in an ultrasound bath (Bandelin, Sonorex Super RK255H).

[6] = Relaxivity measurements at 1.41 T in water; type: physicochemical; details: 37° C., normalized to Gd
Outline: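 T1 by inversion recovery and T2 by CPMG at 1.41 T (60 MHz), 37° C, relaxation delay ≥5×T1. Three Gd concentrations between 0.05 and 2 mM; relaxivities derived from measured relaxation rates in water.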

SMILES | Uptake rat hepatocytes [1] | Inhibition Rifampicine [1] | Uptake into OATP1B3-HEK 293 cells (OATP1B3) | Inhibition Rifampicine (OATP1B3) | r1 human plasma [2] | Transmetallation stability [3] | Uptake into OATP1B1-HEK 293 cells (OATP1B1) | Inhibition Rifampicine (OATP1B1) | Log P (partition coefficient butanol/buffer) [4] | Solubility [5] | r1 water [6]
CCOCCOCCOc1ccc(CC(C(=O)O)N2CCN(CC(=O)[O-])CCN(CC(=O)[O-])CCN(CC(=O)[O-])CC2)cn1.[Gd+3] (centres unmarked) [Example 16, gadolinium 2,2′,2″-{10-[1-carboxy-2-{6-[2-(2-ethoxyethoxy)ethoxy]pyridin-3-yl}ethyl]-1,4,7,10-tetraazacyclododecane-1,4,7-triyl}triacetate] | 16 % of RC1 | 92 % inhibition | 25 % of RC1 | 94 % inhibition | 6.2 L/mmol/s | 101% | 66 % of RC1 | 35 % inhibition | −1.81 | >416 mM | 4.4 L/mmol/s
CCOCCOCCOc1ccc(CC(C(=O)[O-])N2CCN(CC(=O)[O-])CCN(C(CC)C(=O)O)CCN(CC(=O)[O-])CC2)cc1.[Gd+3] (centres unmarked) [Example 43, gadolinium-2-{4,10-bis(carboxylatomethyl)-7-[1-carboxypropyl]-1,4,7,10-tetraazacyclododecan-1-yl}-3-{4-[2-(2-ethoxyethoxy)ethoxy]phenyl}propanoate] | 90 % of RC1 | 97 % inhibition | 111 % of RC1 | 99 % inhibition | 6.9 L/mmol/s | 102% | 122 % of RC1 | 62 % inhibition | −1.19 | >209 mM | 4.8 L/mmol/s
CCOCCOCCOc1ccc(CCC[C@@H](C(=O)O)N2CCN(CC(=O)[O-])CCN(CC(=O)[O-])CCN(CC(=O)[O-])CC2)cc1.[Gd+3] [Example 26, gadolinium 2,2′,2″-{10-[(1S)-1-carboxy-4-{4-[2-(2-ethoxyethoxy)ethoxy]phenyl}butyl]-1,4,7,10-tetraazacyclododecane-1,4,7-triyl}triacetate] | 77 % of RC1 | 97 % inhibition | 64 % of RC1 | 93 % inhibition | 7.5 L/mmol/s | 99% | 386 % of RC1 | 73 % inhibition | −1.01 | >62 mM | 4.5 L/mmol/s
CCCCOc1cccc(CCC[C@@H](C(=O)O)N2CCN([C@@H](CO)C(=O)[O-])CCN([C@@H](CO)C(=O)[O-])CCN([C@@H](CO)C(=O)[O-])CC2)c1.[Gd+3] [Example 34, gadolinium (2S,2′S,2″S)-2,2′,2″-{10-[(1S)-4-(3-butoxyphenyl)-1-carboxybutyl]-1,4,7,10-tetraazacyclododecane-1,4,7-triyl}tris(3-hydroxypropanoate)] | 98 % of RC1 | 90 % inhibition | 140 % of RC1 | 98 % inhibition | 18.0 L/mmol/s | 101% | 947 % of RC1 | 96 % inhibition | 0.12 | >236 mM | 4.9 L/mmol/s
CCOCCOc1ccc(CC(C(=O)O)N2CCN(CC(=O)[O-])CCN(C(CC)C(=O)[O-])CCN(CC(=O)[O-])CC2)cc1.[Gd+3] (single isomer, unassigned) [Example 7, gadolinium 2-[7-{1-carboxy-2-[4-(2-ethoxyethoxy)phenyl]ethyl}-4,10-bis(carboxylatomethyl)-1,4,7,10-tetraazacyclododecan-1-yl]butanoate] | 89 % of RC1 | 99 % inhibition | 76 % of RC1 | 99 % inhibition | 7.4 L/mmol/s | 101% | 217 % of RC1 | 91 % inhibition | −1.09 | >243 mM | 4.5 L/mmol/s
CCOc1ccc(CCCC(C(=O)O)N2CCN(CC(=O)[O-])CCN(CC(=O)[O-])CCN(CC(=O)[O-])CC2)cc1.[Gd+3] (centres unmarked) [Example 28, gadolinium 2,2′,2″-{10-[1-carboxy-4-(4-ethoxyphenyl)butyl]-1,4,7,10-tetraazacyclododecane-1,4,7-triyl}triacetate] | 72 % of RC1 | 98 % inhibition | 36 % of RC1 | 97 % inhibition | 10.6 L/mmol/s | 101% | 294 % of RC1 | 94 % inhibition | −0.71 | >194 mM | 4.4 L/mmol/s
CCOCCOCCOc1ccc(C[C@H](C(=O)O)N2CCN(CC(=O)[O-])CCN(CC(=O)[O-])CCN(CC(=O)[O-])CC2)cc1.[Gd+3] [Example 4, gadolinium 2,2′,2″-{10-[(1R)-1-carboxy-2-{4-[2-(2-ethoxyethoxy)ethoxy]phenyl}ethyl]-1,4,7,10-tetraazacyclododecane-1,4,7-triyl}triacetate] | 72 % of RC1 | 98 % inhibition | 58 % of RC1 | 98 % inhibition | 6.5 L/mmol/s | 100% | 126 % of RC1 | 40 % inhibition | −1.61 | >75 mM | 4.2 L/mmol/s
